Consider 9 molecules from US5089516A, “1-phenyl-3,5-pyrazolidinedione hydroxystyrene compounds which have tyrosine kinase inhibiting activity” (Kanegafuchi Kagaku Kogyo Kabushiki Kaisha, priority 1987, dated 1992).

The subject of test [1] is passive cutaneous anaphylaxis (PCA) reaction. Description: Inhibitory activity against homologous PCA reaction in rats. The conditions noted are these: Rattus norvegicus, oral, read-out: Inhibition rate (PCA reaction); for inhibition in vivo at 100 mg/kg: 1 hour before antigen. The format is in vivo, male Wistar rats. The protocol:
(1) Inhibitory activity against homologous PCA reaction in rats
Antiserum was prepared according to I. Mota [Immunology, 7, 681(1964)]and the PCA reaction was conducted according to Maruyama et al. [Folia Pharmacologica Japonica, 74, 179(1978}].
An ovalbumin solution dissolved in physiological saline (2 mg/ml) was injected intramuscularly into both thighs of male Wistar rats weighing 200 to 260 g in a volume of 0.5 ml/100 g body weight, and pertussis vaccine (Bordetella pertussis, 2×10^10 /ml/ Chiba Serum Institute) was intraperitoneally administered at 1 ml/rat. Twelve days after sensitization, blood was taken from posterior aorta under ether anesthesia and serum was separated and stored at -80° C.
In each group, 4 male Wistar rats weighing 180 to 210 g were used. Back of the rats was shaved and reach 0.05 ml of antiserum diluted 32 times with physiological saline was injected intradermally at four sites on the back. After 48 hours, 1 ml of a mixture of ovalbumin (2 mg/ml) as an antigen and Evans blue (10 mg/ml) in the volume ratio of 1 : 1, which was dissolved in physiological saline was injected intravenously into the tail. Thirty minutes later, the rats were bled to death under ether anesthesia and the back skin of the rats was removed. The blue-dyed area formed by pigment exudation was measured and an inhibition rate (%) was calculated as compared with control according to the following equation. [formula]
A test compound suspended in a 2.5 % aqueous solution of gum arabic containing 0.2 % Tween 80 was administered orally in a volume of 0.5 m:/100 g body weight 1 hour before the injection of antigen. To the control group, only the vehicle was administered. Tranilast which was a positive control compound was administered orally 30 minutes before the injection of antigen.

In test [2] the test system is antigen-induced anaphylactic shock death. The test is described as follows: Protecting effect against antigen-induced anaphylactic shock death in actively sensitized guinea pigs. The format is in vivo, male guinea pigs. The conditions noted are these: Cavia porcellus, 1.5 h, oral, 30 minutes before antigen inhalation. The protocol: (2) Protecting effect against antigen-induced anaphylactic shock death in actively sensitized guinea pigs
Anaphylactic shock death caused by inhalation of antigen was observed according to John P. Devlin Pulmonary and Antiallergic Drugs, John Wiley & Sons, (1985)] employing actively sensitized guinea pigs.
Each 100 mg/kg of body weight ovalbumin dissolved in physiological saline was injected into gluteus and into peritoneal cavity of male guinea pigs weighing 250 to 350 g. Three days later, the animals were further injected intraperitoneally with ovalbumin (100 mg/kg body weight) to conduct booster. Those animals were employed for testing 3 to 4 weeks after the sensitization.
In each group, 4 or more actively sensitized guinea pigs were pretreated by subcutaneously injecting pyrilamine (1 mg/kg body weight) 30 minutes before antigen inhalation to suppress histamine-dependent response and propranolol (1 mg/kg body weight) to enhance the response induced by other than histamine 10 minutes before the antigen inhalation.
The animal was placed in a desiccator with a capacity of about […] and 0.5% aqueous solution of ovalbumin in the state of aerosol was inhaled with ultrasonic type nebulizer for five minutes. Anaphylactic shock death was observed and the animals survived for 90 minutes or more after antigen inhalation were estimated to be protected. All the animals of the control group died due to anaphylactic shock. The compounds of the present invention and therapeutic antiasthmatic agent (tranilast, theophylline) were administered orally 30 minutes before the antigen inhalation.

The test system of test [3] is antigen-induced airway constriction. Description: Inhibitory activity against antigen-induced airway constriction in actively sensitized guinea pigs. The format is in vivo. The conditions noted are these: Cavia porcellus, iv, 3 minutes before antigen inhalation, read-out: Inhibition rate (airway constriction). The protocol: (3) Inhibitory activity against antigen-induced airway constriction in actively sensitized guinea pigs
That is, the sensitized guinea pigs (5 guinea pigs/group) were provided with artificial respiration by inserting a tracheal cannula under urethane anesthesia (1.5 g/kg body weight, intraperitoneal administration), and then, gallamine at 1 mg/kg body weight was injected intravenously to stop spontaneous respiration of the guinea pigs. Inhalation of 0.5% aqueous solution of ovalbumin was conducted using a nebulizer for 1 minute to increase antigen-induced airway constriction, at the same time, airway pressure was recorded through a transducer. Test compound was administered into jugular vein (i.v.) of the guinea pig 3 minutes before the antigen inhalation or administered orally (p.o.) 2 hours before the antigen inhalation. As a positive control compound, theophylline which was a drug for anti-asthma was used. The effect of the compound was estimated by calculating the maximum value of airway constriction (%) in comparison with the control group, according to the following equation. [formula]

Test [4] has as its target T1, epidermal growth factor receptor-tyrosine kinase complex (Homo sapiens, UniProt P00533).
T1 construct: The membrane preparation was employed in the following measurement without solubilization; endogenous in cells; host or cells: A-431 (ATCC CRL1555), membrane preparation, not solubilized
The test is described as follows: Tyrosine kinase inhibiting activity (A-431 membrane preparation, EGF-stimulated). The conditions noted are these: read-out: Tyrosine kinase inhibition rate; for inhibition at 1 µM: 1 μM in the reaction mixture; for inhibition at 10 µM: 10 μM in the reaction mixture. The format is biochemical. The procedure:
Tyrosine kinase inhibiting activity of the compound of the present invention was measured referring to a method for measuring tyrosine kinase activity by G. Carpenter or by S. Cohen et al. [J. Biol. Chem., 254, 4884(1979); J. Biol. Chem., 257, 1528(1982)].
Cell line A-431 derived from human carcinoma (ATCC CRL1555) was cultured at 37° C. under the condition of 5% CO2 in Dulbecco's modified Eagle's medium (made by NISSUE PHARMACEUTICAL CO., LTD.) containing 10% by volume fetal bovine serum, 50 μg/ml of streptomycin, 50 IU/ml of penicillin G and 50 μg/ml of kanamycin. […] The membrane preparation was employed in the following measurement without solubilization.
A test compound dissolved in dimethylsulfoxide (hereinafter referred to as "DMSO") was added to a mixture of 20 mM of N-2-hydroxyethylpiperazine-N'-2-ethanesulfonic acid buffer (pH 7.4), 1 mM of MnCl2, 7.5 μg of bovine serium albumin and the membrane preparation (10 μg as protein). After incubation at 0° C. for 5 minutes, 100 ng of epidermal growth factor (hereinafter referred to as "EGF") was added thereto and the mixture was further incubated at 0° C. for 15 minutes. [γ-^32 P]ATP (3000 Ci/mmol, 0.1 μCi) was added thereto to make final volume of 70 μl. After incubation at 0° C. for 15 minutes, 50 μl of the reaction mixture was soaked into Whatman 3 MM filter paper (made by Whatman Ltd.) and immediately the reaction was stopped by an aqueous solution of 10% by weight trichloroacetic acid containing 10 mM sodium pyrophosphate. The filter paper was sufficiently washed with the same solution and then washed with ethanol, and dried. Radioactivity present in the filter paper was measured by liquid scintillation counter (A). Also, radioactivity was measured in case of the reaction without EGF (B), the reaction without the test compound (C), and the reaction without both EGF and the test compound (D) as a control.
Tyrosine kinase inhibition rate (%) was calculated by the following equation. [formula]

The subject of test [5] is Nycobacterium smegmatis ATCC 607. The test is described as follows: Antibacterial activity (MIC) against acid-fast bacteria. The format is cell-based. The conditions noted are these: 37° C., 40 to 42 hours. The protocol:
As for acid-fast bacteria, after cultured in glycerol broth medium, there was prepared a bacterial suspension for inoculation containing about 10^6 of the bacteria per 1 ml of the medium. On the other hand, there were prepared some glycerol Czapek agar plating media with adding the test compounds, and thereto the bacterial suspension for inoculation was streaked.

Another test has as its target T2, 5-lipoxygenase (Cavia porcellus, UniProt A0A286X958).
T2 construct: The cytosol fraction was used as an enzyme solution; from tissue; host or cells: peritoneal exudate cells of casein-injected Hartley guinea pigs, 105,000×g cytosol
T2 sequence (A0A286X958 1-674): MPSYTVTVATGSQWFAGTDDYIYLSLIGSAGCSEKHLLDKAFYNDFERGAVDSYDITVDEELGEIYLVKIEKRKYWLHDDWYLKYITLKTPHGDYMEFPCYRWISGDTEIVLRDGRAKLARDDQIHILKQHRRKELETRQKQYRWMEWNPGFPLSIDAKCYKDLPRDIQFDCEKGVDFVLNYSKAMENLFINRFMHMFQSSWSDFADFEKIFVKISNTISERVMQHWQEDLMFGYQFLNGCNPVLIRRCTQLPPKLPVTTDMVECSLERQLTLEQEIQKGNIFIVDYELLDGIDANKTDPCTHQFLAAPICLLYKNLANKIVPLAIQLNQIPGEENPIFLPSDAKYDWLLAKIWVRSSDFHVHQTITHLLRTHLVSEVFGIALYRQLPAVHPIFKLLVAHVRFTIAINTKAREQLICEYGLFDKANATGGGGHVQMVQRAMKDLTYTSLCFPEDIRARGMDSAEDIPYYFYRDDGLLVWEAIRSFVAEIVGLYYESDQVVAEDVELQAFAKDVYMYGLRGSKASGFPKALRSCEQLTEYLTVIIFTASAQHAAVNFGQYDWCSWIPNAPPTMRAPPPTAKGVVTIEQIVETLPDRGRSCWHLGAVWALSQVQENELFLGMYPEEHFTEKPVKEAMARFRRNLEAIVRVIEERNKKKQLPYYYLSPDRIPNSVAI
Description: 5-Lipoxygenase inhibiting activity (5-HETE formation, cytosol of peritoneal exudate cells). The format is biochemical, Hartley guinea pigs. The conditions noted are these: read-out: Inhibition rate (5-lipoxygenase); for inhibition at 10 µM: 10 μM in the reaction mixture; for inhibition at 1 µM: 1 μM in the reaction mixture. The protocol:
5-Lipoxygenase inhibiting activity of the compound of the present invention was measured referring to the method for measuring 5-lipoxygenase activity by K. Ochi et al. [Journal of Biological Chemistry (J. Biol. Chem.), 258, 5754(1983)].
Sterilized 2% solution of casein (pH 7) was injected intraperitoneally into Hartley guinea pigs in a volume of 5 ml/100 g body weight. Fifteen hours later, the guinea pigs were killed and peritoneal exudate cells thereof were collected. After the exudate cells were washed with 17 mM Tris--HCl buffer (pH 7.4) containing 0.74% ammonium to remove contaminating erythrocytes in the exudate cells suspension, the cells were washed with buffer A (130 mM NaCl, 1 mM EDTA, 25 mM sodium phosphate, pH 7.4). The washed cells were suspended in buffer B (50 mM sodium phosphate, 1 mM EDTA, 0.1% gelatin, pH 7.4) at 10^8 cells/ml, sonicated and centrifuged at 10,000×g for 20 minutes under the cold atmosphere. The obtained supernatant was further centrifuged at 105,000×g for 60 minutes under the cold atmosphere. The cytosol fraction was used as an enzyme solution.
The enzyme solution was preincubated with the […] in the presence of 1 mM CaCl2, 1 mM reduced gluthathione (GSH) and 2 mM ATP at 30° C. for 5 minutes in 0.2 ml of a reaction mixture and the mixture was further incubated at 30° C. for 5 minutes by adding 20 μM [1-^14 C] arachidonic acid (0.1 μCi) thereto. The test compounds were dissolved in ethanol to give the reaction mixture containing 2% ethanol as a final concentration. Only ethanol was added to the reaction mixture as a control group.
To the reaction mixture were added 2.5 ml of a mixture of chloroform and methanol (2/1 by volume) and 0.3 ml of 40 mM citric acid to stop the reaction. The mixture was vortexed and an organic solvent layer was evaporated to dryness under nitrogen gas. After dissolving the dried organic layer in a fixed amount of the mixture of chloroform and methanol (2/1 by volume), it was spotted on a silica gel plate (Kiesel gel 60F254, E. Merck) and products were separated using a developer (the organic solvent layer of ethyl acetate/water/2,2,4-trimethylpentane/acetic acid=11/10/5/2 by volume). After the radioactive position of the product was determined by means of a radioautography, an area equivalent to that of 5-hydroxyeicosatetraenoic acid (hereinafter referred to as "5-HETE") was scraped off, and then its radioactivity was measured with a liquid scintillation counter. With regarding the amount of the generated 5-HETE as the 5-lipoxygenase inhibiting activity, the inhibition rate (%) in comparison with the control group was calculated according to the following equation. [formula]

Structures are written as SMILES. Converted amounts (≈) assume the structure as drawn.

T1 sequence (P00533 25-1210, one chain of several): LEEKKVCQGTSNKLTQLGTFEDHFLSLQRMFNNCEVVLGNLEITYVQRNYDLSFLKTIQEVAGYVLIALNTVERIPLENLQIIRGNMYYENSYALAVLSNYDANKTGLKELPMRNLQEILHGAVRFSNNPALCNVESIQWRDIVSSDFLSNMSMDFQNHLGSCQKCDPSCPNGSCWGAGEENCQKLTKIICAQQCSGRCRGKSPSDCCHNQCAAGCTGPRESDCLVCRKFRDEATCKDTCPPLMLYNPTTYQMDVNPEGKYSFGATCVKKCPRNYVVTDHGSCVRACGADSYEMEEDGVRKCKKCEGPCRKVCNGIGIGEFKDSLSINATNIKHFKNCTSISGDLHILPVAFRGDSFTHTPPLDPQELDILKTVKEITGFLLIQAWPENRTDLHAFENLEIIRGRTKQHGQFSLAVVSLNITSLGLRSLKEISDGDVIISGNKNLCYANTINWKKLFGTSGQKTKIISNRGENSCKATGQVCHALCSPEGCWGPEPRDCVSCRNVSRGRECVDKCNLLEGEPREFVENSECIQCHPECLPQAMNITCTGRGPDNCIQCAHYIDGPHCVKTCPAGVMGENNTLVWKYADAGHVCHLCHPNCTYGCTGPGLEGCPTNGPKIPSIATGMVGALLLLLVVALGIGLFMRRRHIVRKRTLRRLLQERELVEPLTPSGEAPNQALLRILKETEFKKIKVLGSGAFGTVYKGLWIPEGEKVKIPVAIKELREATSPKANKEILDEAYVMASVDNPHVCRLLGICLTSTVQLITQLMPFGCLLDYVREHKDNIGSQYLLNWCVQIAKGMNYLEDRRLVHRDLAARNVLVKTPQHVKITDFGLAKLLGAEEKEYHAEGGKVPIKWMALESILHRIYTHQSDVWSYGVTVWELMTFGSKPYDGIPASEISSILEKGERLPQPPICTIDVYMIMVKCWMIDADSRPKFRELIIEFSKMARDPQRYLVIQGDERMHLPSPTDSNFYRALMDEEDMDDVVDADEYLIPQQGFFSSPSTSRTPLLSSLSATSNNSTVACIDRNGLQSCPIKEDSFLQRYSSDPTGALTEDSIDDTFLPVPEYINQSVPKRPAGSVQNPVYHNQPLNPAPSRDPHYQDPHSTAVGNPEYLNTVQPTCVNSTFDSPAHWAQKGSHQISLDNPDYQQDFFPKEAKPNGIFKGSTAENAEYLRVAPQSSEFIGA

Regarding `COc1ccc(/C=C/C(=O)Nc2ccccc2C(=O)O)cc1OC` [tranilast, reference compound], in test [1] (300 mg/kg, 30 minutes before antigen, positive control), the inhibition in vivo at 300 mg/kg worked out at 40%. The responders at 100 mg/kg in test [2] came out at 0%.
Usually inhibition stands for the drop in the measured response relative to a control, in per cent. As usually defined, the MIC is the lowest concentration found to suppress growth. A higher MIC goes with weaker potency. As to `CC(C)c1cc(C=C2SC(Nc3ccccc3)=NC2=O)cc(C(C)C)c1O` [Compound 32], in test [3] (2 mg/kg), the inhibition in vivo at 2 mg/kg turned out to be 23%. In addition, the inhibition in vivo at 100 mg/kg in test [1] is 21%. Further, the inhibition at 1 µM in test [4] was 74%. In addition, the MIC in test [5] was at most 6 µg/mL.
As for `CC(C)c1cc(C=C2SC(NCc3ccc(Cl)cc3)=NC2=O)cc(C(C)C)c1O` [Compound 36], the responders at 100 mg/kg in test [2] was 25%. In addition, the inhibition at 10 µM amounted to 84% on 5-lipoxygenase and 59% in test [4].
As to `N#CC(=Cc1cc(O)c(O)c(Cc2ccccc2)c1)C(N)=O` [Compound 23], the inhibition in vivo at 100 mg/kg in test [1] amounted to 29%. In addition, the inhibition at 10 µM was 85% on 5-lipoxygenase and 60% in test [4].
For the molecule `Cn1c(=O)c2[nH]cnc2n(C)c1=O` [theophylline, reference compound], the inhibition in vivo at 1 mg/kg in test [3] came out at 31%. For the same molecule, the responders at 30 mg/kg in test [2] (30 mg/kg) is 50%.
With `CC(C)c1cc(C=C2SC(NCCc3ccccc3)=NC2=O)cc(C(C)C)c1O` [Compound 34], the inhibition in vivo at 100 mg/kg in test [1] worked out at 48%. In addition, the inhibition at 1 µM in test [4] amounted to 63%. This molecule gave a minimal inhibitory concentration (MIC) in test [5] of at most 6 µg/mL.
Regarding `CCCCOc1cc(C=C2SC(NCc3ccccc3)=NC2=O)cc(Cc2ccccc2)c1O` [Compound 30], the inhibition at 1 µM amounted to 87% at 5-lipoxygenase and 70% in test [4]. In addition, the minimum inhibitory concentration (MIC) in test [5] is at most 6 µg/mL.
Regarding `CC(C)c1cc(C=C2SC(NCc3ccccn3)=NC2=O)cc(C(C)C)c1O` [Compound 45], the inhibition in vivo at 1 mg/kg in test [3] worked out at 42%. The inhibition at 1 µM on 5-lipoxygenase was 36%. The inhibition at 10 µM in test [4] turned out to be 90%. Moreover, the minimum inhibitory concentration (MIC) in test [5] stood at 2 µg/mL (≈ 5.06 µM).
As to `COc1ccc(CNC2=NC(=O)C(=Cc3cc(C(C)C)c(O)c(C(C)C)c3)S2)cc1` [Compound 38], the responders at 100 mg/kg in test [2] was 25%. Besides, the inhibition at 10 µM at 5-lipoxygenase was found to be 88%; in test [4], 85%.
